Test results reported in publication PMC6979384, “Characterization of the plant homeodomain (PHD) reader family for their histone tail interactions” (Epigenetics & Chromatin, 2020).
Where no end group is shown, it is not given here.

Columns and labels:
Test in all cases: Histone peptide microarray
Assay type in all cases: binding, human
[1] = tested on: KDM5A (3); details: GST-tagged KDM5A (3), arrays performed twice
Method in brief: (§1)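 Steps: express and purify GST-tagged PHD reader; incubate 0.5 μM protein on a peptide microarray (293 histone peptides, single or combined PTMs) following an optimized protocol; average signal across 4 replicates.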

[2] = tested on: ING4; details: GST-tagged ING4, arrays performed twice
Method in brief: as §1

[3] = tested on: PHF21A; details: GST-tagged PHF21A, arrays performed twice
Method in brief: as §1

[4] = tested on: PHF13; details: GST-tagged PHF13, arrays performed twice
Method in brief: as §1

[5] = tested on: TAF3; details: GST-tagged TAF3, arrays performed twice
Method in brief: as §1

[6] = tested on: KDM4C (TTP); details: arrays performed twice
Method in brief: as §1

[7] = tested on: MLL5; details: GST-tagged MLL5, arrays performed twice
Method in brief: as §1

[8] = tested on: KDM5A (1); details: GST-tagged KDM5A (1), arrays performed twice
Method in brief: as §1

[9] = tested on: PHF8; details: GST-tagged PHF8, arrays performed twice
Method in brief: as §1

[10] = tested on: ING3; details: GST-tagged ING3, arrays performed twice
Method in brief: as §1

[11] = tested on: MORC3 (CW); details: arrays performed twice
Method in brief: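 Readout is array binding signal, reported as the mean and standard deviation over four replicates. Each purified GST-fused PHD domain was incubated at 0.5 μM with a library of 293 modified histone peptides.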

[12] = tested on: BPTF (PB); details: arrays performed twice
Method in brief: as §1

[13] = tested on: KDM5B (3); details: GST-tagged KDM5B (3), arrays performed twice
Method in brief: as §1

[14] = tested on: PHRF1 (RP); details: GST-tagged PHRF1 (RP), arrays performed twice
Method in brief: as §1

[15] = tested on: PHF2; details: GST-tagged PHF2, arrays performed twice
Method in brief: as §1

[16] = tested on: RAG2; details: GST-tagged RAG2, arrays performed twice
Method in brief: as §1

[17] = tested on: CHD5 (PPCC); details: arrays performed twice
Method in brief: as §1

[18] = tested on: TRIM66 (PB); details: arrays performed twice
Method in brief: as §1

[19] = tested on: ING2; details: GST-tagged ING2, arrays performed twice
Method in brief: as §1

[20] = tested on: CHD4 (PPCC); details: arrays performed twice
Method in brief: as §1

[21] = tested on: AIRE (PP); details: GST-tagged AIRE (PP), arrays performed twice
Method in brief: as §1

[22] = tested on: DIDO1; details: GST-tagged DIDO1, arrays performed twice
Method in brief: as §1

[23] = tested on: ING1; details: GST-tagged ING1, arrays performed twice
Method in brief: as §1

[24] = tested on: KDM5B (1); details: GST-tagged KDM5B (1), arrays performed twice
Method in brief: as §1

[25] = tested on: SP140L; details: GST-tagged SP140L, arrays performed twice
Method in brief: as §1

[26] = tested on: PHF23; details: GST-tagged PHF23, arrays performed twice
Method in brief: as §1

[27] = tested on: CHD5 (PCC); details: arrays performed twice
Method in brief: as §1

[28] = tested on: ING5; details: GST-tagged ING5, arrays performed twice
Method in brief: as §1

[29] = tested on: KDM7A; details: GST-tagged KDM7A, arrays performed twice
Method in brief: as §1

[30] = tested on: BAZ2B; details: GST-tagged BAZ2B, arrays performed twice
Method in brief: as §1

[31] = tested on: DPF2 (PPC2W2); details: arrays performed twice
Method in brief: as §1

[32] = sheet "Array Heatmap", total replicate number n = 4

H3 (52-61): H3 52-61 (RRYQKSTELL; UniProt P68431 53-62, looked up, fragment)
Array Heatmap signal, KDM5A (3) [1, 32]: 0.5465 | Array Heatmap signal, ING4 [2, 32]: 0.5513 | Array Heatmap signal, PHF21A [3, 32]: 0.5243 | Array Heatmap signal, PHF13 [4, 32]: 0.7152 | Array Heatmap signal, TAF3 [5, 32]: 0.3129 | Array Heatmap signal, KDM4C (TTP) ([6]; sheet "Array Heatmap", GST-tagged KDM4C (TTP), total replicate number n = 4): 0.5685 | Array Heatmap signal, MLL5 [7, 32]: 0.6079 | Array Heatmap signal, KDM5A (1) [8, 32]: 0.5239 | Array Heatmap signal, PHF8 [9, 32]: 0.404 | Array Heatmap signal, ING3 [10, 32]: 0.5651 | Array Heatmap signal, MORC3 (CW) ([11]; sheet "Array Heatmap", GST-tagged MORC3 (CW), total replicate number n = 4): 0.4348 | Array Heatmap signal, BPTF (PB) ([12]; sheet "Array Heatmap", GST-tagged BPTF (PB), total replicate number n = 4): 0.412 | Array Heatmap signal, KDM5B (3) [13, 32]: 0.517 | Array Heatmap signal, PHRF1 (RP) [14, 32]: 0.5632 | Array Heatmap signal, PHF2 [15, 32]: 0.6756 | Array Heatmap signal, RAG2 [16, 32]: 0.2955 | Array Heatmap signal, CHD5 (PPCC) ([17]; sheet "Array Heatmap", GST-tagged CHD5 (PPCC), total replicate number n = 4): 0.6595 | Array Heatmap signal, TRIM66 (PB) ([18]; sheet "Array Heatmap", GST-tagged TRIM66 (PB), total replicate number n = 4): 0.6688 | Array Heatmap signal, ING2 [19, 32]: 0.6326 | Array Heatmap signal, CHD4 (PPCC) ([20]; sheet "Array Heatmap", GST-tagged CHD4 (PPCC), total replicate number n = 4): 0.678 | Array Heatmap signal, AIRE (PP) [21, 32]: 0.514 | Array Heatmap signal, DIDO1 [22, 32]: 0.9 | Array Heatmap signal, ING1 [23, 32]: 0.6486 | Array Heatmap signal, KDM5B (1) [24, 32]: 0.6945 | Array Heatmap signal, SP140L [25, 32]: 0.4012 | Array Heatmap signal, PHF23 [26, 32]: 0.6261 | Array Heatmap signal, CHD5 (PCC) ([27]; sheet "Array Heatmap", GST-tagged CHD5 (PCC), total replicate number n = 4): 0.8381 | Array Heatmap signal, ING5 [28, 32]: 0.4351 | Array Heatmap signal, KDM7A [29, 32]: 0.4034 | Array Heatmap signal, BAZ2B [30, 32]: 0.5444 | Array Heatmap signal, DPF2 (PPC2W2) ([31]; sheet "Array Heatmap", GST-tagged DPF2 (PPC2W2), total replicate number n = 4): 0.817

H3 (74-84) N-ac: H3 74-84 (Ac-IAQDFKTDLRF; UniProt P68431 75-85, looked up, fragment)
Array Heatmap signal, KDM5A (3) ([1]; histone peptide array, n of 4): 0.4833 | Array Heatmap signal, ING4 ([2]; histone peptide array, n of 4): 0.4711 | Array Heatmap signal, PHF21A ([3]; histone peptide array, n of 4): 0.4735 | Array Heatmap signal, PHF13 ([4]; histone peptide array, n of 4): 0.618 | Array Heatmap signal, TAF3 ([5]; histone peptide array, n of 4): 0.2845 | Array Heatmap signal, KDM4C (TTP) ([6]; GST-tagged KDM4C (TTP = Tandem Tudor domain + PHD), histone peptide array, n of 4): 0.495 | Array Heatmap signal, MLL5 ([7]; histone peptide array, n of 4): 0.5353 | Array Heatmap signal, KDM5A (1) ([8]; histone peptide array, n of 4): 0.4913 | Array Heatmap signal, PHF8 ([9]; histone peptide array, n of 4): 0.3664 | Array Heatmap signal, ING3 ([10]; histone peptide array, n of 4): 0.5027 | Array Heatmap signal, MORC3 (CW) ([11]; GST-tagged MORC3 (CW = CW-type Zn-finger), histone peptide array, n of 4): 0.4011 | Array Heatmap signal, BPTF (PB) ([12]; GST-tagged BPTF (PB = PHD + Bromodomain), histone peptide array, n of 4): 0.3549 | Array Heatmap signal, KDM5B (3) ([13]; histone peptide array, n of 4): 0.4839 | Array Heatmap signal, PHRF1 (RP) ([14]; histone peptide array, n of 4): 0.4448 | Array Heatmap signal, PHF2 ([15]; histone peptide array, n of 4): 0.5329 | Array Heatmap signal, RAG2 ([16]; histone peptide array, n of 4): 0.2671 | Array Heatmap signal, CHD5 (PPCC) ([17]; GST-tagged CHD5 (PPCC = Dual PHD + Dual Chromodomain), histone peptide array, n of 4): 0.5613 | Array Heatmap signal, TRIM66 (PB) ([18]; GST-tagged TRIM66 (PB = PHD + Bromodomain), histone peptide array, n of 4): 0.6043 | Array Heatmap signal, ING2 ([19]; histone peptide array, n of 4): 0.6419 | Array Heatmap signal, CHD4 (PPCC) ([20]; GST-tagged CHD4 (PPCC = Dual PHD + Dual Chromodomain), histone peptide array, n of 4): 0.602 | Array Heatmap signal, AIRE (PP) ([21]; histone peptide array, n of 4): 0.4661 | Array Heatmap signal, DIDO1 ([22]; histone peptide array, n of 4): 0.7101 | Array Heatmap signal, ING1 ([23]; histone peptide array, n of 4): 0.5586 | Array Heatmap signal, KDM5B (1) ([24]; histone peptide array, n of 4): 0.7009 | Array Heatmap signal, SP140L ([25]; histone peptide array, n of 4): 0.3545 | Array Heatmap signal, PHF23 ([26]; histone peptide array, n of 4): 0.5407 | Array Heatmap signal, CHD5 (PCC) ([27]; GST-tagged CHD5 (PCC = PHD + Dual Chromodomain), histone peptide array, n of 4): 0.8195 | Array Heatmap signal, ING5 ([28]; histone peptide array, n of 4): 0.3669 | Array Heatmap signal, KDM7A ([29]; histone peptide array, n of 4): 0.3521 | Array Heatmap signal, BAZ2B ([30]; histone peptide array, n of 4): 0.4698 | Array Heatmap signal, DPF2 (PPC2W2) ([31]; GST-tagged DPF2 (PPC2W2 = Dual PHD + C2W2-type Zn-finger), histone peptide array, n of 4): 0.6686
